Reference: patent publication US7105566B2, “Methods of treatment during vascular procedures” (Allergan, Inc., priority 2002, dated 2006)
Several values for one entry are separate records, joined by “and”; a condition that tells them apart may be missing. Equal entries are not always repeated. Entries after “also recorded” stand apart in the source; their conditions may differ.

Assays:
male cynomolgus monkeys = test: Serum triglycerides of male cynomolgus monkeys treated by gastric intubation; type: in vivo, cynomolgus monkey; details: 1.0 mg/0.4 ml/kg by gastric intubation, daily; mean of 3 monkeys
Experimental: Five male cynomologus monkeys were employed in the study. […] Compound 1 is an RAR antagonist or inhibitor. The remaining two were similarly treated with a vehicle to serve as control. Serum samples were collected on days 1, 8, 15, 22 and 25 for triglyceride determination. Serum samples from days 8, 15, 22 and 25 were also assayed for the concentration of Compound 1.

[1] = Stability to normal light; type: physicochemical
male SJL mice [2] = test: Hepatic triglyceride (HTG) output after WR-1339 injection in fasted male SJL mice; type: in vivo, mouse; details: 20 mg/kg oral daily for 4 days; fasted
Experimental: (§1) On day 4, animals were fasted after dosing, starting at 8 a.m. Following 6 hours of fasting, blood samples were collected prior to intravenous injection of WR-1339 at 100 mg/5 ml/kg. Additional serum samples were collected at 1 and 2 hours after WR-1339 injection. WR-1339 is a detergent that inactivates lipoprotein lipase and thus prevents the removal of triglycerides from circulation. By measuring the increase of STG after WR-1339 administration in fasted animals, the hepatic triglyceride (HTG) output during fasting can be estimated.
(§2) Due to the lack of effect of Compound 3 at 20 mg/kg, the dose was increased to 100 mg/kg in the same set of mice. STG was determined on day 3 prior to dosing (Day 3, 8 a.m.). […] To ensure that Compound 3 would be bioavailable, Compound 3 was dissolved in DMSO and given by intraperitoneal injections, once at 4 p.m. on day 3 and once at 8 a.m. on day 4, at a dosage of 100 mg/kg/injection. Administration of WR-1339 and blood collections on day 4 were similarly conducted as described above.

male SJL mice [3] = test: Serum triglycerides (STG) in male SJL mice; type: in vivo, mouse; details: 20 mg/kg oral daily
Experimental: Male SJL mice were dosed orally with vehicle, Compound 1 (an RAR pan-antagonist), or Compound 3 (an RARE antagonist) for 4 consecutive days. The structure and synthesis of Compound 1 is described in Example I. The structure of Compound 3 is shown below, and the compound was synthesized using routine methods:
The test compounds were dissolved in corn oil and given at a dosage/volume of 20 mg/5 ml/kg.
On day 3, serum triglycerides (STG) were determined from samples collected at 7 a.m.
as §1, §2

female ZDF rats = test: Serum triglycerides and cholesterol in female ZDF rats on a diabetogenic high fat diet, Compound 1 at 0.03-0.3 mg/kg; type: in vivo, rat; details: for Cholesterol day 8, 0 hr, Mean / Triglycerides day 8, 0 hr, Mean / Cholesterol day 0, 4 hr, Mean / Triglycerides day 0, 4 hr, Mean / Cholesterol day 7, 4 hr, Mean / Triglycerides day 7, 4 hr, Mean / Cholesterol day 3, 4 hr, Mean / Triglycerides day 3, 4 hr, Mean: group mean of 4 rats; for Cholesterol day 8, 0 hr, Mean / Triglycerides day 8, 0 hr, Mean / Cholesterol day 8, 0 hr / Triglycerides day 8, 0 hr: 24 hours after the last dosing; for Cholesterol day 0, 4 hr, Mean / Triglycerides day 0, 4 hr, Mean / Cholesterol day 0, 4 hr / Triglycerides day 0, 4 hr: day before dosing (baseline); for Cholesterol day 7, 4 hr, Mean / Triglycerides day 7, 4 hr, Mean / Cholesterol day 7, 4 hr / Triglycerides day 7, 4 hr: seventh day of dosing; for Cholesterol day 3, 4 hr, Mean / Triglycerides day 3, 4 hr, Mean / Cholesterol day 3, 4 hr / Triglycerides day 3, 4 hr: third day of dosing; for Cholesterol day 8, 0 hr / Triglycerides day 8, 0 hr / Cholesterol day 0, 4 hr / Triglycerides day 0, 4 hr / Cholesterol day 7, 4 hr / Triglycerides day 7, 4 hr / Cholesterol day 3, 4 hr / Triglycerides day 3, 4 hr: individual animals
Experimental: ZDF rats, which are hyperlipidemic and diabetic, were used as a model to test the effect of RAR antagonists/inhibitors on serum lipids. Female ZDF rats (10–11 weeks old) were fed a GMI 13004 diet, a diabetogenic, high fat diet, for 5–6 weeks. Compound 1 was dissolved in vehicle (2% DMSO, 98% corn oil). Compound 1 was administered at a dosage of 0.03 mg/kg, 0.1 mg/kg, and 0.3 mg/kg body weight. Dosings were performed at approximately 8 a.m. Serum was collected at approximately 12 p.m. on the day before dosing (Day 0, 4 hour); the third day of dosing (Day 3, 4 hour); the seventh day of dosing (Day 7, 4 hour); and 24 hours after the last dosing (Day 8, 0 hour). The levels of triglycerides and cholesterol in the serum samples were measured.

male cynomologus monkeys = test: Clinical observation, body weight and food consumption of treated monkeys; type: in vivo, cynomolgus monkey; details: daily 1.25 mg/kg orally for 25 days
Experimental: (§3) Five male cynomologus monkeys were employed in the study. Three of the five monkeys were treated with Compound 1 at a daily dosage of 1.25 mg/kg (orally) for a period of 25 days. Compound 1 is an RAR antagonist or inhibitor. The remaining two were similarly treated with a vehicle to serve as control. Serum samples were collected on days 1, 8, 15, 22 and 25 for triglyceride determination. Serum samples from days 8, 15, 22 and 25 were also assayed for the concentration of Compound 1.

[4] = Serum concentration of Compound 1 in male cynomolgus monkeys; type: in vivo, cynomolgus monkey; details: given orally
Experimental: as §3

CCc1ccc(C2=CC(C)(C)Sc3ccc(C#Cc4ccc(C(=O)O)cc4)cc32)cc1 [Compound 1, 4-[[4-(4-ethylphenyl)-2,2-dimethyl-(2H)-thiochromen-6-yl]-ethynyl]-benzoic acid]
Serum triglycerides Day 25, Mean (male cynomolgus monkeys): 24.0 mg/dL | stability to normal light [1]: relatively stable to normal light | HTG output after WR-1339 injection (male SJL mice [2]): reduction of HTG output | non-fasting STG (Day 3, 8 a.m.) (male SJL mice [3]): appeared to lower | fasting STG (Day 4, 2 p.m.) (male SJL mice [3]; after 6 hours of fasting): but not fasting STG | serum triglyceride levels as % of pre-treatment triglyceride levels (female ZDF rats; 0.03 mg/kg oral): about 59% | Cholesterol day 8, 0 hr, Mean (female ZDF rats; 0.03 mg/kg oral): 110 | Triglycerides day 8, 0 hr, Mean (female ZDF rats; 0.03 mg/kg oral): 781 | Cholesterol day 0, 4 hr, Mean (female ZDF rats; 0.03 mg/kg oral): 123 | Triglycerides day 0, 4 hr, Mean (female ZDF rats; 0.03 mg/kg oral): 1334 | Cholesterol day 7, 4 hr, Mean (female ZDF rats; 0.03 mg/kg oral): 109 | Triglycerides day 7, 4 hr, Mean (female ZDF rats; 0.03 mg/kg oral): 749 | Cholesterol day 3, 4 hr, Mean (female ZDF rats; 0.03 mg/kg oral): 105 | Triglycerides day 3, 4 hr, Mean (female ZDF rats; 0.03 mg/kg oral): 794 | Cholesterol day 8, 0 hr (female ZDF rats; 0.03 mg/kg oral): 108 (2×) and 93 and 129 | Triglycerides day 8, 0 hr (female ZDF rats; 0.03 mg/kg oral): 846 and 531 and 1230 and 516 | Cholesterol day 0, 4 hr (female ZDF rats; 0.03 mg/kg oral): 114 and 129 (2×) and 120 | Triglycerides day 0, 4 hr (female ZDF rats; 0.03 mg/kg oral): 1200 and 1245 and 1944 and 945 | Cholesterol day 7, 4 hr (female ZDF rats; 0.03 mg/kg oral): 111 and 105 and 96 and 123 | Triglycerides day 7, 4 hr (female ZDF rats; 0.03 mg/kg oral): 771 and 468 and 855 and 903 | Cholesterol day 3, 4 hr (female ZDF rats; 0.03 mg/kg oral): 93 and 96 and 129 and 102 | Triglycerides day 3, 4 hr (female ZDF rats; 0.03 mg/kg oral): 663 and 651 and 1197 and 666 | serum triglyceride levels as % of pre-treatment triglyceride levels (female ZDF rats; 0.1 mg/kg oral): ~40% | Cholesterol day 8, 0 hr, Mean (female ZDF rats; 0.1 mg/kg oral): 105 | Triglycerides day 8, 0 hr, Mean (female ZDF rats; 0.1 mg/kg oral): 479 | Cholesterol day 0, 4 hr, Mean (female ZDF rats; 0.1 mg/kg oral): 125 | Triglycerides day 0, 4 hr, Mean (female ZDF rats; 0.1 mg/kg oral): 1208 | Cholesterol day 7, 4 hr, Mean (female ZDF rats; 0.1 mg/kg oral): 107 | Triglycerides day 7, 4 hr, Mean (female ZDF rats; 0.1 mg/kg oral): 505 | Cholesterol day 3, 4 hr, Mean (female ZDF rats; 0.1 mg/kg oral): 106 | Triglycerides day 3, 4 hr, Mean (female ZDF rats; 0.1 mg/kg oral): 497 | Cholesterol day 8, 0 hr (female ZDF rats; 0.1 mg/kg oral): 102 (2×) and 105 and 111 | Triglycerides day 8, 0 hr (female ZDF rats; 0.1 mg/kg oral): 390 and 339 and 486 and 699 | Cholesterol day 0, 4 hr (female ZDF rats; 0.1 mg/kg oral): 123 (2×) and 129 and 126 | Triglycerides day 0, 4 hr (female ZDF rats; 0.1 mg/kg oral): 1284 and 993 and 1197 and 1356 | Cholesterol day 7, 4 hr (female ZDF rats; 0.1 mg/kg oral): 114 and 90 and 111 (2×) | Triglycerides day 7, 4 hr (female ZDF rats; 0.1 mg/kg oral): 429 and 384 and 618 and 588 | Cholesterol day 3, 4 hr (female ZDF rats; 0.1 mg/kg oral): 129 and 84 and 96 and 114 | Triglycerides day 3, 4 hr (female ZDF rats; 0.1 mg/kg oral): 402 and 360 and 681 and 546 | serum triglyceride levels as % of pre-treatment triglyceride levels (female ZDF rats; 0.3 mg/kg oral): ~14% | Cholesterol day 8, 0 hr, Mean (female ZDF rats; 0.3 mg/kg oral): 115 | Triglycerides day 8, 0 hr, Mean (female ZDF rats; 0.3 mg/kg oral): 215 | Cholesterol day 0, 4 hr, Mean (female ZDF rats; 0.3 mg/kg oral): 131 | Triglycerides day 0, 4 hr, Mean (female ZDF rats; 0.3 mg/kg oral): 1550 | Cholesterol day 7, 4 hr, Mean (female ZDF rats; 0.3 mg/kg oral): 119 | Triglycerides day 7, 4 hr, Mean (female ZDF rats; 0.3 mg/kg oral): 215 | Cholesterol day 3, 4 hr, Mean (female ZDF rats; 0.3 mg/kg oral): 101 | Triglycerides day 3, 4 hr, Mean (female ZDF rats; 0.3 mg/kg oral): 282 | Cholesterol day 8, 0 hr (female ZDF rats; 0.3 mg/kg oral): 102 and 120 and 123 and 114 | Triglycerides day 8, 0 hr (female ZDF rats; 0.3 mg/kg oral): 222 and 180 and 195 and 261 | Cholesterol day 0, 4 hr (female ZDF rats; 0.3 mg/kg oral): 105 and 141 and 156 and 123 | Triglycerides day 0, 4 hr (female ZDF rats; 0.3 mg/kg oral): 882 and 1725 and 2244 and 1350 | Cholesterol day 7, 4 hr (female ZDF rats; 0.3 mg/kg oral): 99 and 126 and 132 and 120 | Triglycerides day 7, 4 hr (female ZDF rats; 0.3 mg/kg oral): 195 and 222 and 267 and 174 | Cholesterol day 3, 4 hr (female ZDF rats; 0.3 mg/kg oral): 93 and 96 and 108 (2×) | Triglycerides day 3, 4 hr (female ZDF rats; 0.3 mg/kg oral): 282 and 234 and 297 and 315 | effect on serum cholesterol levels (female ZDF rats; 0.03-0.3 mg/kg oral): effective at lowering serum cholesterol levels, although the effect was more modest than observed for serum triglycerides | body weight or rate of food consumption (male cynomologus monkeys): no change | general health / clinical signs (male cynomologus monkeys; 1.25 mg/kg): appeared healthy; also recorded: without any noticeable abnormal clinical signs | oral absorption [4]: well absorbed
